Test results: patent US20240116985A1, “STAPLED PEPTIDES AND METHODS THEREOF” (priority 2020, published 2024)
Like-named read-outs stand apart in the source and are kept apart here.

Tests used:
CHI Log D procedure = assay type: physicochemical; settings: for CHI Log D: pH 7.4; for chromatographic logD: pH 7.4, CHI Log D
[1] = target: T1, full-length B-Catenin (Uniprot ID P35222) (Homo sapiens, UniProt P35222); assay: Alphascreen binding assay (beta-catenin / biotin-TCF4 10-53)
T1 construct: 65 nM full-length B-Catenin (Uniprot ID P35222)
T1 sequence (P35222 1-781): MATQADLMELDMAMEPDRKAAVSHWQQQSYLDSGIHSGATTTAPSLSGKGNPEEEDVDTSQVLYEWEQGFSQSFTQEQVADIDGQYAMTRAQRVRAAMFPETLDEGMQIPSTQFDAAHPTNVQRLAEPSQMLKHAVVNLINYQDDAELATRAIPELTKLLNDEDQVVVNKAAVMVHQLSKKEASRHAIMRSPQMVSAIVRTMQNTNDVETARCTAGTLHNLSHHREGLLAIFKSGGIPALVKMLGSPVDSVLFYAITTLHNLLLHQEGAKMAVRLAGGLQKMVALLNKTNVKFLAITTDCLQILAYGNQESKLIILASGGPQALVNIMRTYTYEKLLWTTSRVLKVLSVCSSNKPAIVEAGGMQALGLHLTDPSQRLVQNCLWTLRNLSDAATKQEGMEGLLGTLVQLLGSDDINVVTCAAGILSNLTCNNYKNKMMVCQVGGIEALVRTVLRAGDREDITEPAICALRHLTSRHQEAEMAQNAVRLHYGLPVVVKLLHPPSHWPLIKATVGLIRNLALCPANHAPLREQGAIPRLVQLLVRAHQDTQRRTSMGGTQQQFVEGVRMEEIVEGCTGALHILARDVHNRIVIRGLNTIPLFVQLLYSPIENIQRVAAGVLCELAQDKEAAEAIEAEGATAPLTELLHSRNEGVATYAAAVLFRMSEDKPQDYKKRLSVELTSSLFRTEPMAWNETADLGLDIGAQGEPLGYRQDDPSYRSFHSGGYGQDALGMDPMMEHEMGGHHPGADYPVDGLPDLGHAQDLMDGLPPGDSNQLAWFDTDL
Summary of the method: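 Final concentrations: 65 nM full-length human β-catenin plus 10 nM biotin-TCF4(10-53) peptide, test peptide 3-fold from 10 uM to 5 nM, preincubated 15 min at 20 °C in Tris pH 8.0/250 mM NaCl buffer. Nickel-chelate AlphaScreen donor/acceptor beads then added for 60 min in the dark; duplicate reads fitted to 1:1 binding model with Hill slope.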

[2] = target: T2, full-length beta-Catenin (Uniprot ID P35222) (Homo sapiens, UniProt P35222); assay: Fluorescence polarization IC50 (beta-catenin / 5FAM-TCF4 10-53 competition); assay type: binding
T2 construct: 10 nM full-length beta-Catenin (Uniprot ID P35222)
T2 sequence (P35222 1-781): T1 sequence (P35222 1-781)

[3] = Table E2-1, read-out: beta-Catenin FP IC50
[4] = fluorescence polarization, beta-catenin, read-out: FP EC50

For CC[C@H](C)[C@H](NC(=O)[C@H](CC(=O)O)NC(=O)[C@H](C)NC(C)=O)C(=O)N[C@]1(C)CCN(C)C(=O)OCC=CCCCCC[C@@](C)(C(=O)N[C@@H](Cc2ccccc2)C(=O)N[C@@H](Cc2c[nH]c3ccccc23)C(=O)N[C@@H](Cc2c[nH]cn2)C(N)=O)NC(=O)[C@H](CCC(N)=O)NC(=O)[C@H](Cc2ccccc2)NC(=O)[C@H](C)NC(=O)[C@H](C)NC(=O)[C@H](CC(=O)O)NC(=O)[C@H](CC(=O)O)NC1=O [I-64, Ac-Ala-Asp-Ile-RdN-Asp-Asp-Ala-Ala-Phe-Gln-S7-Phe-Trp-His-NH2], the “CHI Log D” value (CHI Log D procedure) was 1.222, the EC50 [1] was 0.65 µM and the IC50 [2, 3] was 4.25 µM. The IC50 [2, 4] was 4.25 µM.

In the case of CC[C@H](C)[C@H](NC(=O)[C@H](CC(=O)O)NC(=O)[C@H](C)NC(C)=O)C(=O)N[C@]1(C)CCN(C)C(=O)OCC=CCCCCC[C@@](C)(C(=O)N[C@@H](Cc2ccccc2)C(=O)N[C@@H](Cc2c[nH]c3ccccc23)C(=O)N[C@@H](Cc2c[nH]cn2)C(N)=O)NC(=O)[C@H](CCC(N)=O)NC(=O)[C@H](Cc2ccccc2)NC(=O)[C@H](C)NC(=O)[C@H](C)NC(=O)[C@H](CCC(=O)O)NC(=O)[C@H](CC(=O)O)NC1=O [I-66, Ac-Ala-Asp-Ile-RdN-Asp-Glu-Ala-Ala-Phe-Gln-S7-Phe-Trp-His-NH2], the “CHI Log D” value (CHI Log D procedure) is reported as 1.259, the EC50 [1] is reported as 0.175 µM and the IC50 [2, 3] is reported as 1.09 µM. The IC50 [2, 4] was 1.09 µM.

For CC(=O)N1CCC[C@]12CC=CCCCC1(CCCC=CCCCCCC[C@@](C)(C(=O)N[C@@H](Cc3ccccc3)C(=O)N[C@@H](Cc3c[nH]c4ccccc34)C(=O)N[C@@H](CCC(N)=O)C(N)=O)NC(=O)[C@H](C(C)C)NC(=O)[C@H](Cc3ccccc3)NC(=O)[C@H](C)NC(=O)[C@H](C)NC(=O)[C@H](CCC(N)=O)NC(=O)[C@H](CC(=O)O)NC1=O)NC(=O)[C@H](C)NC(=O)[C@H](CC(=O)O)NC2=O (stereo partly drawn) [I-127, Ac-PL3-Asp-Ala-B5-Asp-Gln-Ala-Ala-Phe-Val-S8-Phe-Trp-Gln-NH2], the “CHI Log D” value (CHI Log D procedure) was 2.245, the EC50 [1] was 0.552 µM and the IC50 [2, 3] was 4.84 µM. The IC50 [2, 4] was 4.84 µM.

Compound CC(=O)N1CCC[C@]12CC=CCCCC1(CCCC=CCCCCCC[C@@](C)(C(=O)N[C@@H](Cc3ccccc3)C(=O)N[C@@H](Cc3c[nH]c4ccccc34)C(=O)N[C@@H](CCC(N)=O)C(N)=O)NC(=O)[C@H](C(C)C)NC(=O)[C@H](Cc3ccccc3)NC(=O)[C@H](C)NC(=O)[C@H](C)NC(=O)[C@H](CCCC(=O)O)NC(=O)[C@H](CC(=O)O)NC1=O)NC(=O)[C@H](C)NC(=O)[C@H](CC(=O)O)NC2=O (stereo partly drawn) [I-129, Ac-PL3-Asp-Ala-B5-Asp-Aad-Ala-Ala-Phe-Val-S8-Phe-Trp-Gln-NH2] has a chromatographic logD (CHI Log D procedure) of 2.11, an EC50 [1] of 0.083 µM and an IC50 [2, 3] of 1.98 µM.

For CC(=O)N1CCC[C@]12CC=CCCCC1(CCCC=CCCCCCC[C@@](C)(C(=O)N[C@@H](Cc3ccccc3)C(=O)N[C@@H](Cc3c[nH]c4ccccc34)C(=O)NC(C)(C)C(N)=O)NC(=O)[C@H](C(C)C)NC(=O)[C@H](Cc3ccccc3)NC(=O)[C@H](C)NC(=O)[C@H](C)NC(=O)[C@H](CCC(=O)O)NC(=O)[C@H](CC(=O)O)NC1=O)NC(=O)[C@H](C)NC(=O)[C@H](CC(=O)O)NC2=O (stereo partly drawn) [I-134, Ac-PL3-Asp-Ala-B5-Asp-Glu-Ala-Ala-Phe-Val-S8-Phe-Trp-Aib-NH2], the “CHI Log D” value (CHI Log D procedure) was 2.426, the EC50 [1] was 0.099 µM and the IC50 [2, 3] was 2.7 µM. It also gave an IC50 [2, 4] of 2.7 µM.

CC(=O)N1CCC[C@]12CC=CCCCC1(CCCC=CCCCCCC[C@@](C)(C(=O)N[C@@H](Cc3ccccc3)C(=O)N[C@@H](Cc3csc4ccccc34)C(=O)N[C@@H](CCC(N)=O)C(N)=O)NC(=O)[C@H](C(C)C)NC(=O)[C@H](Cc3ccccc3)NC(=O)[C@H](C)NC(=O)[C@H](C)NC(=O)[C@H](CCC(=O)O)NC(=O)[C@H](CC(=O)O)NC1=O)NC(=O)[C@H](C)NC(=O)[C@H](CC(=O)O)NC2=O (stereo partly drawn) [I-144, Ac-PL3-Asp-Ala-B5-Asp-Glu-Ala-Ala-Phe-Val-S8-Phe-BztA-Gln-NH2] gave a chromatographic logD (CHI Log D procedure) of 2.12, an EC50 [1] of 0.066 µM and an IC50 [2, 3] of 0.147 µM.

In the case of CC[C@H](C)[C@H](NC(=O)[C@H](CC(=O)O)NC(=O)[C@H](C)NC(C)=O)C(=O)N[C@]1(C)CCN(C)C(=O)OCC=CCCCCC[C@@](C)(C(=O)N[C@@H](Cc2ccccc2)C(=O)N[C@@H](Cc2c[nH]c3ccccc23)C(N)=O)NC(=O)[C@H](CCC(N)=O)NC(=O)[C@H](Cc2ccccc2)NC(=O)[C@H](C)NC(=O)[C@H](C)NC(=O)[C@H](CCC(=O)O)NC(=O)[C@H](CC(=O)O)NC1=O [I-148, Ac-Ala-Asp-Ile-RdN-Asp-Glu-Ala-Ala-Phe-Gln-S7-Phe-Trp-NH2], the chromatographic logD (CHI Log D procedure) is reported as 1.36, the EC50 [1] is reported as 0.398 µM and the IC50 [2, 3] is reported as 2.77 µM.

CC[C@H](C)[C@H](NC(=O)[C@H](CC(=O)O)NC(=O)[C@H](C)NC(C)=O)C(=O)N[C@]1(C)CCN(C)C(=O)OCC=CCCCCC[C@@](C)(C(=O)N[C@@H](Cc2ccccc2)C(=O)N[C@@H](Cc2c[nH]c3ccccc23)C(=O)N[C@@H](C)C(N)=O)NC(=O)[C@H](CCC(N)=O)NC(=O)[C@H](Cc2ccccc2)NC(=O)[C@H](C)NC(=O)[C@H](C)NC(=O)[C@H](CCC(=O)O)NC(=O)[C@H](CC(=O)O)NC1=O [I-153, Ac-Ala-Asp-Ile-RdN-Asp-Glu-Ala-Ala-Phe-Gln-S7-Phe-Trp-Ala-NH2] gave a chromatographic logD (CHI Log D procedure) of 1.32, an EC50 [1] of 0.153 µM and an IC50 [2, 3] of 2.14 µM.

For CC[C@H](C)[C@@H]1NC(=O)[C@H](CC(=O)O)NC(=O)[C@]2(CC=CCCCC3(CCCC=CCCCCCC[C@@](C)(C(=O)N[C@@H](Cc4ccccc4)C(=O)N[C@@H](Cc4c[nH]c5ccccc45)C(=O)N[C@@H](Cc4c[nH]cn4)C(N)=O)NC(=O)[C@H](CCC(N)=O)NC(=O)[C@H](Cc4ccccc4)NC(=O)[C@H](C)NC(=O)[C@H](C)NC(=O)[C@H](CC(=O)O)NC(=O)[C@H](CC(=O)O)NC3=O)NC1=O)CCCN2C(C)=O (stereo partly drawn) [I-174, Ac-PL3-Asp-Ile-B5-Asp-Asp-Ala-Ala-Phe-Gln-S8-Phe-Trp-His-NH2], the “CHI Log D” value (CHI Log D procedure) was 2.242, the EC50 [1] was 0.116 µM and the IC50 [2, 3] was 1.76 µM. For the same compound, the IC50 [2, 4] was 1.76 µM.

With CC[C@H](C)[C@@H]1NC(=O)[C@H](CC(=O)O)NC(=O)[C@]2(CC=CCCCC3(CCCC=CCCCCCC[C@@](C)(C(=O)N[C@@H](Cc4ccccc4)C(=O)N[C@@H](Cc4c[nH]c5ccccc45)C(=O)N[C@@H](Cc4c[nH]cn4)C(N)=O)NC(=O)[C@H](C(C)C)NC(=O)[C@H](Cc4ccccc4)NC(=O)[C@H](C)NC(=O)[C@H](C)NC(=O)[C@H](CCC(=O)O)NC(=O)[C@H](CC(=O)O)NC3=O)NC1=O)CCCN2C(C)=O (stereo partly drawn) [I-176, Ac-PL3-Asp-Ile-B5-Asp-Glu-Ala-Ala-Phe-Val-S8-Phe-Trp-His-NH2] the “CHI Log D” value (CHI Log D procedure) was 2.58, the EC50 [1] was 0.549 µM and the IC50 [2, 3] was 1.99 µM. For the same compound, the IC50 [2, 4] was 1.99 µM.

For CC(=O)N1CCC[C@]12CC=CCCCC1(CCCC=CCCCCCC[C@@](C)(C(=O)N[C@@H](Cc3ccccc3)C(=O)N[C@@H](Cc3c[nH]c4ccccc34)C(=O)N[C@@H](Cc3c[nH]cn3)C(N)=O)NC(=O)[C@H](CCC(N)=O)NC(=O)[C@H](Cc3ccccc3)NC(=O)[C@H](C)NC(=O)[C@H](C)NC(=O)[C@H](CCC(=O)O)NC(=O)[C@H](CC(=O)O)NC1=O)NC(=O)[C@H](C)NC(=O)[C@H](CC(=O)O)NC2=O (stereo partly drawn) [I-178, Ac-PL3-Asp-Ala-B5-Asp-Glu-Ala-Ala-Phe-Gln-S8-Phe-Trp-His-NH2], the “CHI Log D” value (CHI Log D procedure) was 1.913, the EC50 [1] was 0.152 µM and the IC50 [2, 3] was 1.63 µM. For the same compound, the IC50 [2, 4] was 1.63 µM.

In the case of CC(=O)N1CCC[C@]12CC=CCCCC1(CCCC=CCCCCCC[C@@](C)(C(=O)N[C@@H](Cc3ccccc3)C(=O)N[C@@H](Cc3c[nH]c4ccccc34)C(=O)N[C@@H](CCC(N)=O)C(N)=O)NC(=O)[C@H](C(C)C)NC(=O)[C@H](Cc3ccc(N)cc3)NC(=O)[C@H](C)NC(=O)[C@H](C)NC(=O)[C@H](CC(=O)O)NC(=O)[C@H](CC(=O)O)NC1=O)NC(=O)[C@H](C)NC(=O)[C@H](CC(=O)O)NC2=O (stereo partly drawn) [I-322, Ac-PL3-Asp-Ala-B5-Asp-Asp-Ala-Ala-4AmPhe-Val-S8-Phe-Trp-Gln-NH2], the “CHI Log D” value (CHI Log D procedure) is reported as 1.933 and the EC50 [1] is reported as 0.355 µM.

For CC(=O)N1CCC[C@]12CC=CCCCC1(CCCC=CCCCCCC[C@@](C)(C(=O)N[C@@H](Cc3ccccc3)C(=O)N[C@@H](Cc3c[nH]c4ccccc34)C(=O)N[C@@H](CCC(N)=O)C(N)=O)NC(=O)[C@H](C(C)C)NC(=O)[C@H](Cc3ccccc3)NC(=O)[C@H](C)NC(=O)[C@H](C)NC(=O)[C@H](Cc3ccc(N)cc3)NC(=O)[C@H](CC(=O)O)NC1=O)NC(=O)[C@H](C)NC(=O)[C@H](CC(=O)O)NC2=O (stereo partly drawn) [I-324, Ac-PL3-Asp-Ala-B5-Asp-4AmPhe-Ala-Ala-Phe-Val-S8-Phe-Trp-Gln-NH2], the chromatographic logD (CHI Log D procedure) was 2.6 and the EC50 [1] was 1.75 µM.
